Data as given in PMC4638191, “Multicomponent reaction-based synthesis and biological evaluation of tricyclic heterofused quinolines with multi-trypanosomatid activity” (European Journal of Medicinal Chemistry, 2015).
Like-named read-outs stand apart in the source and are kept apart here.

Columns and labels:
[1] = test system: L. infantum strain MCAN/ES/92/BCN722 promastigote forms; assay: Activity against promastigotes of L. infantum (acid phosphatase); format: cell-based, Leishmania infantum; details: promastigote form, mean ± SD of duplicate experiments performed at least twice
[2] = test system: T. cruzi strain MHOM/ES/2203/BCN590 (Tcl) epimastigote forms; assay: Activity against epimastigotes of T. cruzi (cell counting); details: mean ± SD of duplicate experiments performed at least twice
[3] = test system: bloodstream form T. brucei (strain 221); assay: Trypanocidal activity against cultured bloodstream form T. brucei (resazurin); details: for IC50: mean of triplicate ± SEM; for IC90: pH 7.4, read-out: T. brucei IC90
Experimental: T. brucei in the logarithmic phase of growth were diluted back to 2.5 × 10^4 mL^−1 and aliquoted into 96-well plates. The compounds were then added at a range of concentrations and the plates incubated at 37 °C. Each drug concentration was tested in triplicate. Resazurin was added after 48 h and the plates incubated for a further 16 h and the plates then read in a Spectramax plate reader. Results were analysed using GraphPad Prism.

in vitro = details: rat, rat skeletal muscle L6 cells
Experimental: (§1) Cytotoxicity against mammalian cells was assessed using microtitre plates following a described procedure [58]. Briefly, rat skeletal muscle L6 cells were seeded at 1 × 10^4 mL^−1 in 200 μL of growth medium containing different compound concentrations. The plates were incubated for 6 days at 37 °C and 20 μL resazurin was then added to each well. After a further 8 h incubation, the fluorescence was determined using a Spectramax plate reader.

[4] = test system: rat skeletal myoblast L6 cells; assay: cells; details: L6, read-out: L6 cells IC50
Experimental: as §1

[5] = for Pe: PAMPA-BBB, PBS:EtOH 70:30, mean ± SD of three independent experiments; for Pe (prediction) of BBB permeation: class from PAMPA-BBB Pe
Experimental: Thus, the brain passive permeability of the novel compounds was evaluated in vitro through the widely used PAMPA-BBB method [[50]

[6] = biological target: Electrophorus electricus AChE (EeAChE) (Electrophorus electricus, UniProt O42275); assay: biochemical; format: biochemical; details: mean ± SEM
Chain of Electrophorus electricus AChE (EeAChE) (O42275 24-633): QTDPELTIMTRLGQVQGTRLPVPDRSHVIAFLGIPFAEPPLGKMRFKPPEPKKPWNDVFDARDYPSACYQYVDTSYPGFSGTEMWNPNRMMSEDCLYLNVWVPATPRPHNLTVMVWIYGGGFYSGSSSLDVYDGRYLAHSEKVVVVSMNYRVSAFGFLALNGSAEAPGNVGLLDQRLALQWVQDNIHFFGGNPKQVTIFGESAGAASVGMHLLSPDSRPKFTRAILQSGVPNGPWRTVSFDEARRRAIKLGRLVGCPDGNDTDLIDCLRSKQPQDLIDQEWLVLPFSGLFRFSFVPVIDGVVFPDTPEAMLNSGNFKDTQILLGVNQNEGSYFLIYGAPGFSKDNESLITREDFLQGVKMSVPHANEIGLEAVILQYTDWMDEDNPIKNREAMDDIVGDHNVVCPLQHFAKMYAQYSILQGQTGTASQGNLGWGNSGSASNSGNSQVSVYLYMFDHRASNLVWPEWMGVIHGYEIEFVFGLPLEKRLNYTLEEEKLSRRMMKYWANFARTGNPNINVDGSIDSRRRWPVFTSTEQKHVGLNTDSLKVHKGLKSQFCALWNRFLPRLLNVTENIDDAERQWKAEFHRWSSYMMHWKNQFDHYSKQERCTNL

[7] = Trypanosoma cruzi, read-out: T. cruzi IC50, epimastigote form
[8] = read-out: T. cruzi IC50, epimastigote form
[9] = Trypanosoma brucei, pH 7.4, read-out: T. brucei IC50, bloodstream form, pH 7.4
[10] = SILi: selectivity index as the ratio of cytotoxic to anti-L. infantum IC50 values, L6 IC50 / L. infantum IC50
[11] = SITb: selectivity index as the ratio of cytotoxic to anti-T. brucei IC50 values, L6 IC50 / T. brucei IC50
[12] = SITc: selectivity index as the ratio of cytotoxic to anti-T. cruzi IC50 values, L6 IC50 / T. cruzi IC50
[13] = read-out: T. brucei IC50, bloodstream form, pH 7.4

| Structure (SMILES) | IC50 ([1]; Leishmania infantum) [µM] | IC50 [1] [µM] | IC50 [2, 7] [µM] | IC50 [2, 8] [µM] | IC50 [3, 9] [µM] | IC90 ([3]; Trypanosoma brucei) [µM] | selectivity ratio at 6 days (in vitro; [10]) | selectivity ratio at 6 days (in vitro; [11]) | selectivity ratio at 6 days (in vitro; [12]) | IC50 [4] [µM] | Pe [5] | Pe (prediction) of BBB permeation [5] | IC50 [6] [µM] | IC50 [3, 13] [µM] |
| --- | --- | --- | --- | --- | --- | --- | --- | --- | --- | --- | --- | --- | --- | --- |
| NCc1ccc(-c2nc3ccc(Cl)cc3c3c2CCCN3Cc2ccccc2)cc1 [Compound 3, 4-{1-Benzyl-9-chloro-1,2,3,4-tetrahydrobenzo[h][1,6]naphthyridin-5-yl}benzylamine] | ~30 | 31.1 ± 2.9 | 9.47 | 9.5 ± 2.5 | 1 ± 0.03 | 1.19 ± 0.02 | 0.2 | 6.8 | 0.7 | 6.78 ± 1.26 | 7.4 ± 0.2 10^−6 cm s^−1 | CNS+ (compounds of high BBB permeation (CNS+): Pe (10^−6 cm s^−1) > 5.25) | 3.67 ± 0.55 |  |
| N#Cc1ccc(-c2nc3ccc(Cl)cc3c3c2CCN3)cc1 [Compound 26, 4-{8-Chloro-2,3-dihydro-1H-pyrrolo[3,2-c]quinolin-4-yl}benzonitrile] | > 200 |  | > 150 |  | > 30 | > 30 |  |  |  |  | 6.8 ± 0.3 10^−6 cm s^−1 | CNS+ (compounds of high BBB permeation (CNS+): Pe (10^−6 cm s^−1) > 5.25) | 1.19 ± 0.15 |  |
| N#Cc1ccc(-c2nc3ccc(Cl)cc3c3c2CCCN3)cc1 [Compound 27, 4-{9-Chloro-1,2,3,4-tetrahydrobenzo[h][1,6]naphthyridin-5-yl}benzonitrile] | 15.3 ± 3.6 |  | 147 ± 19 |  | 6.07 ± 0.54 | 10.5 ± 0.2 | 2.5 | 6.4 | 0.3 | 38.8 ± 1.7 | 14.3 ± 0.1 10^−6 cm s^−1 | CNS+ (compounds of high BBB permeation (CNS+): Pe (10^−6 cm s^−1) > 5.25) | 1.13 ± 0.17 |  |
| N#Cc1ccc(-c2nc3ccc(Cl)cc3c3c2CCCCN3)cc1 [Compound 28, 4-{10-Chloro-2,3,4,5-tetrahydro-1H-azepino[3,2-c]quinolin-6-yl}benzonitrile] | 13.7 ± 2.2 |  | 64.6 ± 12.5 |  | 17.3 ± 2.1 | 28.6 ± 6.7 |  |  |  |  | 20.0 ± 1.1 10^−6 cm s^−1 | CNS+ (compounds of high BBB permeation (CNS+): Pe (10^−6 cm s^−1) > 5.25) | 2.2 ± 0.3 |  |
| N#Cc1ccc(-c2nc3cc(Cl)ccc3c3c2CCCN3)cc1 [Compound 29, 4-{8-Chloro-1,2,3,4-tetrahydrobenzo[h][1,6]naphthyridin-5-yl}benzonitrile] | 19 ± 3 |  | 39.4 ± 0.2 |  | > 30 | > 30 |  |  |  |  | 16.2 ± 0.1 10^−6 cm s^−1 | CNS+ (compounds of high BBB permeation (CNS+): Pe (10^−6 cm s^−1) > 5.25) | 3.27 ± 0.43 |  |
| NCc1ccc(-c2nc3ccc(Cl)cc3c3c2CCN3)cc1 [Compound 30, 4-{8-Chloro-2,3-dihydro-1H-pyrrolo[3,2-c]quinolin-4-yl}benzylamine] | 6.5 ± 1.4 |  | ~30 | 37.3 ± 11 | 0.92 ± 0.05 | 1.57 ± 0.03 | 0.4 | 2.8 | 0.1 | 2.54 ± 0.92 | 7.4 ± 2.6 10^−6 cm s^−1 | CNS+ (compounds of high BBB permeation (CNS+): Pe (10^−6 cm s^−1) > 5.25) | 0.87 ± 0.08 |  |
| NCc1ccc(-c2nc3ccc(Cl)cc3c3c2CCCN3)cc1 [Compound 31, 4-{9-Chloro-1,2,3,4-tetrahydrobenzo[h][1,6]naphthyridin-5-yl}benzylamine] | 11.6 ± 2.5 |  | 50.5 ± 14.3 |  | 2.44 ± 0.13 | 3.48 ± 0.05 | 0.8 | 3.7 | 0.2 | 8.92 ± 0.25 | 4.6 ± 0.2 10^−6 cm s^−1 |  | 0.97 ± 0.02 |  |
| NCc1ccc(-c2nc3ccc(Cl)cc3c3c2CCCCN3)cc1 [Compound 32, 4-{10-Chloro-2,3,4,5-tetrahydro-1H-azepino[3,2-c]quinolin-6-yl}benzylamine] | 5 to 8 | 4.8 ± 0.7 | ~30 | 32.4 ± 0.6 | 2.33 ± 0.12 | 3.35 ± 0.05 | 1.5 | 3 | 0.2 | 7.02 ± 0.27 | 11.6 ± 0.2 10^−6 cm s^−1 | CNS+ (compounds of high BBB permeation (CNS+): Pe (10^−6 cm s^−1) > 5.25) | 1.2 ± 0.13 |  |
| NCc1ccc(-c2nc3cc(Cl)ccc3c3c2CCCN3)cc1 [Compound 33, 4-{8-Chloro-1,2,3,4-tetrahydrobenzo[h][1,6]naphthyridin-5-yl}benzylamine] | 13 ± 0.6 |  | 76.1 ± 3.2 |  | 1.25 ± 0.05 | 2.12 ± 0.02 | 0.2 | 2.5 | 0.04 | 3.07 ± 0.66 | 4.0 ± 1.0 10^−6 cm s^−1 |  | 0.44 ± 0.04 |  |
| N#Cc1ccc(-c2nc3cc(Cl)ccc3cc2CCCN)cc1 [Compound 35, 4-[3-(3-Aminopropyl)-7-chloroquinolin-2-yl]benzonitrile] | ~15 | 16.2 ± 4 | 78.8 ± 1.7 |  | ~5 | 5.61 ± 0.05 | 1.3 | 4.9 | 0.3 | 20.4 ± 0.4 | 18.3 ± 0.6 10^−6 cm s^−1 | CNS+ (compounds of high BBB permeation (CNS+): Pe (10^−6 cm s^−1) > 5.25) |  | 4.16 ± 0.07 |
| N#Cc1ccc([C@H]2Nc3ccc(Cl)cc3[C@@H]3OCCC[C@H]23)cc1 [Compound 37] | > 200 |  | 676 ± 37 |  | > 30 | > 30 |  |  |  |  | 7.0 ± 0.7 10^−6 cm s^−1 | CNS+ (compounds of high BBB permeation (CNS+): Pe (10^−6 cm s^−1) > 5.25) |  |  |
| N#Cc1ccc(-c2nc3ccc(Cl)cc3c3c2CCCO3)cc1 [Compound 38, 4-{9-Chloro-3,4-dihydro-2H-pyrano[3,2-c]quinolin-5-yl}benzonitrile] | 23.5 ± 2.4 |  | 178 ± 92 |  | 9.61 ± 0.27 | 13.7 ± 1 | 1.5 | 3.8 | 0.2 | 36.3 ± 8.1 | 29.7 ± 3.8 10^−6 cm s^−1 | CNS+ (compounds of high BBB permeation (CNS+): Pe (10^−6 cm s^−1) > 5.25) | 2.7 ± 0.45 |  |
| Clc1ccc2nc(-c3ccco3)c3c(c2c1)OCCC3 [Compound 42, 9-Chloro-5-(2-furyl)-3,4-dihydro-2H-pyrano[3,2-c]quinoline] | 38.4 ± 21.6 |  | 76.1 ± 7.8 |  | 21.7 ± 1.2 | 29.3 ± 0.5 |  |  |  |  | 3.5 ± 0.4 10^−6 cm s^−1 |  | 16.3 ± 1.5 |  |
| Clc1ccc2nc(-c3cccs3)c3c(c2c1)OCCC3 [Compound 43, 9-Chloro-3,4-dihydro-5-(2-thienyl)-2H-pyrano[3,2-c]quinoline] | 51.4 ± 2.3 |  | > 250 |  | 18 ± 0.4 | 27.6 ± 1.1 |  |  |  |  | 14.4 ± 1.6 10^−6 cm s^−1 | CNS+ (compounds of high BBB permeation (CNS+): Pe (10^−6 cm s^−1) > 5.25) | 9.39 ± 0.82 |  |
| OCCCc1cc2cc(Cl)ccc2nc1-c1ccco1 [Compound 44, 3-[6-chloro-2-(2-furyl)quinolin-3-yl]-1-propanol] | 19.3 ± 11.3 |  | 29.3 ± 12 |  | > 25 | 70.6 ± 1.5 |  |  |  |  | 10.3 ± 1.5 10^−6 cm s^−1 | CNS+ (compounds of high BBB permeation (CNS+): Pe (10^−6 cm s^−1) > 5.25) |  | 35.7 ± 1.8 |
| OCCCc1cc2cc(Cl)ccc2nc1-c1cccs1 [Compound 45, 3-[6-chloro-2-(2-thienyl)quinolin-3-yl]-1-propanol] | 37.3 ± 2.3 |  | 51.7 ± 19.4 |  | > 25 | 42.9 ± 1.5 |  |  |  |  | 28.4 ± 1.2 10^−6 cm s^−1 | CNS+ (compounds of high BBB permeation (CNS+): Pe (10^−6 cm s^−1) > 5.25) |  | 28 ± 0.7 |
| N#CCCc1cc2cc(Cl)ccc2nc1-c1cccs1 [Compound 47, 3-[6-Chloro-2-(2-thienyl)quinolin-3-yl]propanenitrile] | 23.3 ± 5.9 |  | 51.7 ± 5.1 |  | > 25 | > 30 |  |  |  |  | 17.9 ± 1.1 10^−6 cm s^−1 | CNS+ (compounds of high BBB permeation (CNS+): Pe (10^−6 cm s^−1) > 5.25) |  | > 30 |
| CCN(CC)CCCc1cc2cc(Cl)ccc2nc1-c1cccs1 [Compound 50, N-{3-[6-Chloro-2-(2-thienyl)quinolin-3-yl]propyl}-N,N-diethylamine] | ~15 | 13.6 ± 1.5 | 77.6 ± 11.2 |  | ~5 | 12.6 ± 0.9 | 1.1 | 2.3 | 0.2 | 14.7 ± 2.3 | 20.9 ± 0.5 10^−6 cm s^−1 | CNS+ (compounds of high BBB permeation (CNS+): Pe (10^−6 cm s^−1) > 5.25) |  | 6.33 ± 0.94 |
